From ChEMBL document CHEMBL5729320, “Indoleamine-2,3-dioxygenase inhibitor, the preparative method and the use thereof” (2022)

Target: Indoleamine 2,3-dioxygenase 1 (Homo sapiens, UniProt P14902)
Assay: Inhibitory Activity Assay: The tested compounds and the reference compounds are dissolved in DMSO to prepare a high concentration of storage solution. The stock solution of reference compound was diluted with DMSO to prepare a 100× solution. In the first column of the working plate, 8 μL above tested compounds and 8 μL 100× reference compound were respectively added as the highest concentration, and then the highest concentrations were subjected to three times dilution to obtain 11 concentrations and prepare 100× solution. 0.5 μL solution was transferred from the above plate to the detection plate. To each well was added 0.5 μL 100× compound solution. For HPE and ZPE control wells, 0.5 μL 100% DMSO was added.25 μL 2×IDO1 (His-tag) enzyme solution (containing L-ascorbic acid, methylene blue, and catalase) was added to each well. 25 μL reaction solution without IDO1 (His-tag) enzyme was added into HPE control well. The test plate was centrifugated at 1000 rpm for 1 minute to mix well. Then, the test plate was incubated at room temperature for 30 minutes. 25 μL above 2× substrate (L-tryptophan) solution was added to each well. The test plate was centrifugated at 1000 rpm for 1 minute to mix well. The detection plate was placed on ELISA (SpectraMax M5e), the temperature was set at 25° C., and the absorbance (OD value) was measured at 320 nm every 10 minutes till 60 minutes.

Sequence of Indoleamine 2,3-dioxygenase 1 (P14902 whole entry): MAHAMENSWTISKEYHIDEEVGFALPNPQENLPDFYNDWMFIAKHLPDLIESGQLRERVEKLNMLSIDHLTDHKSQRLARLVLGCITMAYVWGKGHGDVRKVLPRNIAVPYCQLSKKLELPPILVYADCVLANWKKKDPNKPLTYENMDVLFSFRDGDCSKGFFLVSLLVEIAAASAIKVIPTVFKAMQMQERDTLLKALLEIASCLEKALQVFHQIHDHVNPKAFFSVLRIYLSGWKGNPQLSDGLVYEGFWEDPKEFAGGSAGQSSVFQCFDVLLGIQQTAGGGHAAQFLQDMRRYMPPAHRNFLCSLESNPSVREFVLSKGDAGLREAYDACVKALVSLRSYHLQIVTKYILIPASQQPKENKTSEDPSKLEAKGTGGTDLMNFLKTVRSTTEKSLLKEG

IC50: 107 nM
SMILES: NS(=O)(=O)N1CCC(CSc2nonc2C(=NO)Nc2ccc(F)c(Br)c2)C1 (stereo unspecified)
